What was measured:
[1] = system: H1N1 (influenza A/New Caledonia/20/99); assay: Antiviral effect on A549 cells infected with H1N1; type: cell-based, H1N1 A/New Caledonia/20/99 virus; settings: Influenza A virus, MOI 0.1, 48 h post-infection, MUNANA neuraminidase readout
How it was run: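 A549 cells dosed with test compounds over a concentration range and infected at once with clinical isolate H1N1 A/New Caledonia/20/99 (MOI 0.1) in DMEM with […] TPCK trypsin, 37 °C. At 48 h, supernatant neuraminidase activity measured with MUNANA substrate (1 h, 37 °C); 4-MU fluorescence at ex 365/em 450 nm.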

LXFL 1121 = assay: Cytotoxicity, propidium iodide-based monolayer assay; settings: 96 h; LXFL 1121, lung large cell carcinoma; four days of treatment; T/C=50%; read-out: Absolute IC50
Procedure: (§1) The cytotoxicity was tested for compounds of the invention on five different cell-lines, namely LXFL 1121, MAXF 401, MMXF L-636, PRXF PC-3M and UXF 1138 which are respectively lung large cell carcinoma, breast adeno carcinoma, multiple myeloma, prostate adeno carcinoma and uterine sarcoma.
Therefore, the compounds have a cytotoxicity against tumor cells and can be used for treating cancer. Materials and Methods Compound Handling A working stock solution of the test compounds was prepared in DMSO at a concentration of 33 mM or 8.25 mM, and small aliquots were stored at −20° C. On each day of an experiment, a frozen aliquot of the working stock solution was thawed and stored at room temperature prior to and during treatment. All liquid handling steps were performed using the Tecan Freedom EVO 200 platform. First, serial 2-fold dilutions of the 33 mM DMSO working stock solution were done in DMSO. […] Briefly, cells were harvested from exponential phase cultures, counted and plated in 96 well flat-bottom microtiter plates at a cell density of 4,000 to 40,000 cells/well dependent on the cell line's growth rate. […] After an incubation period of 1-2 hours at room temperature, fluorescence (FU) was measured using the Enspire Multimode Plate Reader (excitation λ=530 nm, emission λ=620 nm) to quantify the amount of attached viable cells. […]

MMXF L-363 = assay: as above; type: cell-based; settings: Homo sapiens, 96 h; MMXF L-363, multiple myeloma; four days of treatment; T/C=50%; read-out: Absolute IC50
Procedure: as §1
(§2) Therefore, the compounds have a cytotoxicity against tumor cells and can be used for treating cancer. Materials and Methods Compound Handling A working stock solution of the test compounds was prepared in DMSO at a concentration of 33 mM or 8.25 mM, and small aliquots were stored at −20° C. On each day of an experiment, a frozen aliquot of the working stock solution was thawed and stored at room temperature prior to and during treatment. All liquid handling steps were performed using the Tecan Freedom EVO 200 platform. First, serial 2-fold dilutions of the 33 mM DMSO working stock solution were done in DMSO. The DMSO dilutions were then diluted 1:22 into cell culture medium in an intermediate dilution plate. Finally, 10 μl taken from the intermediate dilution plate were transferred to 140 μl/well of the final assay plate. Thus, the DMSO serial dilutions were diluted 1:330 with cell culture medium, and the DMSO concentration in the assay was 0.3% v/v. Tumor Cell Lines The cell lines used in this study were derived from solid tumors as well as from hematological malignancies. Cell lines were routinely passaged once or twice weekly and maintained in culture for up to 20 passages. Most cell lines were grown at 37° C. in a humidified atmosphere with 5% CO2 in RPMI 1640 medium (25 mM HEPES, with L-glutamine, #FG1385, Biochrom, Berlin, Germany) supplemented with 10% (v/v) fetal calf serum (Sigma, Taufkirchen, Germany) and 0.05 mg/mL gentamicin (Life Technologies, Karlsruhe, Germany). […] Briefly, cells were harvested from exponential phase cultures, counted and plated in 96 well flat-bottom microtiter plates at a cell density of 4,000 to 40,000 cells/well dependent on the cell line's growth rate. […] After an incubation period of 1-2 hours at room temperature, fluorescence (FU) was measured using the Enspire Multimode Plate Reader (excitation λ=530 nm, emission λ=620 nm) to quantify the amount of attached viable cells. Data Evaluation An assay was considered fully evaluable if the following quality control criteria were fulfilled: • Z′-factor calculated within the assay plate ≥0.5 • control/background ratio >3.0 • coefficient of variation in the growth control wells ≤30% Drug effects were expressed in terms of the percentage of the fluorescence signal, obtained by comparison of the mean signal in the treated wells with the mean signal of the untreated controls (expressed by the test-versus-control value, T/C-value [%]): […]

MAXF 401 = assay: as above; type: cell-based; settings: Homo sapiens, MAXF401, 96 h; MAXF 401, breast adeno carcinoma; four days of treatment; T/C=50%; read-out: Absolute IC50
Procedure: as §1, §2

PRXF PC-3M = assay: as above; type: cell-based; settings: Homo sapiens, 96 h, prostate adeno carcinoma, four days of treatment, T/C=50%, read-out: Absolute IC50
Procedure: as §1, §2

UXF 1138 = assay: as above; type: cell-based; settings: 96 h; UXF 1138, uterine sarcoma; four days of treatment; T/C=50%; read-out: Absolute IC50
Procedure: as §1, §2

Structure (SMILES): O=C(Nc1scc(-c2ccc(Cl)c(F)c2)c1C(=O)O)c1ccccc1 [Compound #2, 2-Benzamido-4-(4-chloro-3-fluoro-phenyl)thiophene-3-carboxylic acid]
- IC50 [1]: 0.21 µM
- IC50 (LXFL 1121): 10.7 µM
- IC50 (MMXF L-363): 11.9 µM
- IC50 (MAXF 401): 6.56 µM
- IC50 (PRXF PC-3M): 4.74 µM
- IC50 (UXF 1138): 4.48 µM

Source: patent US11840527B2, “Non-fused thiophene derivatives and their uses” (ENYO PHARMA, priority 2018, dated 2023)
